Test results: patent US11524968B2, “Heterocyclic compound as a protein kinase inhibitor” (HK inno.N Corporation, priority 2017, dated 2022)

Biological target: JAK1 (Homo sapiens (Human), UniProt P23458)
Experiment: Analysis of JAK1 activity inhibition ability (ADP-Glo Kinase Assay)
Format: biochemical
Settings: JAK1 enzyme, ADP-Glo luminescence, ATP 250 uM, IRS-itide substrate, 30° C. 40 minutes; read-out: IC50
Procedure, shortened: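 JAK1 enzyme, IRS-itide substrate (40 ng/mL) and 250 uM ATP, both as prepared in kinase buffer (Tris-HCl pH 7.5, MgCl2, BSA, DTT), reacted with compound 40 min at 30 °C. ADP formed was detected by ADP-Glo luminescence; IC50 is the concentration giving 50% inhibition versus control.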

JAK1, sequence (P23458 whole entry): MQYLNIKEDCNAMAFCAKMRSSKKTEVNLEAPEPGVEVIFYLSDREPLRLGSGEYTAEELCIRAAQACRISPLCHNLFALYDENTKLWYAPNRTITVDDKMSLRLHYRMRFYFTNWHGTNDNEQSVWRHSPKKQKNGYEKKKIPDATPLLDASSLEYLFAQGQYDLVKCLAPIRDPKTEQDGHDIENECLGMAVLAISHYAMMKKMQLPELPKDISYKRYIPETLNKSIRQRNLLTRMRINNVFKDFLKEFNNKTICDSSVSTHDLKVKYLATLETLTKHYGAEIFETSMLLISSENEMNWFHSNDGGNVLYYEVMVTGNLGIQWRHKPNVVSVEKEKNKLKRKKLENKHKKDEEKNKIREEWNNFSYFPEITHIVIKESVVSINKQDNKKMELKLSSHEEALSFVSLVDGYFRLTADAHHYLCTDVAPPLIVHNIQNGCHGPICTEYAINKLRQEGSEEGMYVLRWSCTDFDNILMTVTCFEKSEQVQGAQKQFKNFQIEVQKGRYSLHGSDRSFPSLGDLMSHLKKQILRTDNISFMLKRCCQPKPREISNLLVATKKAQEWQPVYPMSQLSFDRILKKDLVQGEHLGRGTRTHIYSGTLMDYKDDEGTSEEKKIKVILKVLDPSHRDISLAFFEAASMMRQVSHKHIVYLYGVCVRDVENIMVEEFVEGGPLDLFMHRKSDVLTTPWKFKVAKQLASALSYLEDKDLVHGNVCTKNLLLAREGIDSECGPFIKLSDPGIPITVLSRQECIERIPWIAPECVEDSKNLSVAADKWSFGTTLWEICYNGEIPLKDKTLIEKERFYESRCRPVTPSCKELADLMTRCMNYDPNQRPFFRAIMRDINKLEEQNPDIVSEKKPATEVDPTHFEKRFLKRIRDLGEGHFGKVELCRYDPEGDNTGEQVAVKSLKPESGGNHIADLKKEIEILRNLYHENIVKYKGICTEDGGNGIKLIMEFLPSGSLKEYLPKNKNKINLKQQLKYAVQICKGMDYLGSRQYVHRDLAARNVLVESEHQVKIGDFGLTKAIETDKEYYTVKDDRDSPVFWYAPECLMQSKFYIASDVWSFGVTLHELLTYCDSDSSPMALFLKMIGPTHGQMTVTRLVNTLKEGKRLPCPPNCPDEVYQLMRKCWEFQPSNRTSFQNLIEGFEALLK

IC50, < 0.02 µM:
CC(C)(C)CS(=O)(=O)Nc1ccc(-c2cc(NC(=O)C3CC3)nc3[nH]ccc23)cc1 [Example 44, N-(4-(4-((2,2-dimethylpropyl)sulfonamido)phenyl)-1H-pyrrolo[2,3-b]pyridin-6-yl)cyclopropanecarboxamide]
O=C(Nc1cc(-c2ccc(NS(=O)(=O)CCCF)cc2)c2cc[nH]c2n1)C1CC1 [Example 3, N-(4-(4-((3-fluoropropyl)sulfonamido)phenyl)-1H-pyrrolo[2,3-b]pyridin-6-yl)cyclopropanecarboxamide]
CCc1cc(NS(=O)(=O)CC2(C#N)CC2)ccc1-c1cc(NC(=O)C2CC2)nc2[nH]ccc12 [Example 109, N-(4-(4-(((1-cyanocyclopropyl)methyl)sulfonamido)-2-ethylphenyl)-1H-pyrrolo[2,3-b]pyridin-6-yl)cyclopropanecarboxamide]
CC1CC1C(=O)Nc1cc(-c2ccc(CN3CCS(=O)(=O)CC3)cc2)c2cc[nH]c2n1 (centres unmarked) [Example 588, N-(4-(4-((1,1-dioxidothiomorpholino)methyl)phenyl)-1H-pyrrolo[2,3-b]pyridin-6-yl)-2-methylcyclopropane-1-carboxamide]
O=C(Nc1nc(-c2ccc(NS(=O)(=O)CCC(F)(F)F)cc2)c2cc[nH]c2n1)C1CC1 [Example 194, N-(4-(4-((3,3,3-trifluoropropyl)sulfonamido)phenyl)-7H-pyrrolo[2,3-d]pyrimidin-2-yl)cyclopropanecarboxamide]
O=C(Nc1cc(C2=CCC(NS(=O)(=O)c3ccc(F)c(F)c3)CC2)c2cc[nH]c2n1)C1CC1 (centres unmarked) [Example 162, N-(4-(4-((3,4-difluorophenyl)sulfonamido)cyclohex-1-en-1-yl)-1H-pyrrolo[2,3-b]pyridin-6-yl)cyclopropanecarboxamide]
CCC(CC)S(=O)(=O)Nc1ccc(-c2cc(NC(=O)C3CC3)nc3[nH]ccc23)cc1 [Example 42, N-(4-(4-((1-ethylpropyl)sulfonamido)phenyl)-1H-pyrrolo[2,3-b]pyridin-6-yl)cyclopropanecarboxamide]
CCCS(=O)(=O)Nc1ccc(-c2cc(NC(=O)C3CC3)nc3[nH]ccc23)c(CC)c1 [Example 115, N-(4-(2-ethyl-4-(propylsulfonamido)phenyl)-1H-pyrrolo[2,3-b]pyridin-6-yl)cyclopropanecarboxamide]

IC50, > 0.2 µM:
CC1CN(C(=O)c2ccc(-c3ccc(F)cc3F)[nH]c2=O)CC=C1c1cc(NC(=O)C2CC2)nc2[nH]ccc12 (centres unmarked) [Example 317, N-(4-(1-(6-(2,4-difluorophenyl)-2-oxo-1,2-dihydropyridine-3-carbonyl)-3-methyl-1,2,3,6-tetrahydropyridin-4-yl)-1H-pyrrolo[2,3-b]pyridin-6-yl)cyclopropanecarboxamide]
Cc1c(NC(=O)C2CC2)nc2[nH]ccc2c1C1=CCN(C(=O)CC(F)(F)F)CC1 [Example 290, N-(5-methyl-4-(1-(3,3,3-trifluoropropanoyl)-1,2,3,6-tetrahydropyridin-4-yl)-1H-pyrrolo[2,3-b]pyridin-6-yl)cyclopropanecarboxamide]
CCS(=O)(=O)Nc1ccc(-c2cc(NC(=O)C3CC3)nc3c2ccn3CC#N)cc1F [Example 62, N-(1-(cyanomethyl)-4-(4-(ethylsulfonamido)-3-fluorophenyl)-1H-pyrrolo[2,3-b]pyridin-6-yl)cyclopropanecarboxamide]
O=C(Nc1cc(N2CCN(S(=O)(=O)CCCF)CC2)c2cc[nH]c2n1)C1CC1 [Example 663, N-(4-(4-((3-fluoropropyl)sulfonyl)piperazin-1-yl)-1H-pyrrolo[2,3-b]pyridin-6-yl)cyclopropanecarboxamide]
CCC(=O)NC1CC=C(c2cc(NC(=O)C3CC3)nc3[nH]ccc23)CC1 (centres unmarked) [Example 242, N-(4-(4-propionamidocyclohex-1-en-1-yl)-1H-pyrrolo[2,3-b]pyridin-6-yl)cyclopropanecarboxamide]
CCCS(=O)(=O)N1CC=C(c2cc(NC(=O)C3CC3)nc3[nH]ccc23)C1 [Example 212, N-(4-(1-(propylsulfonyl)-2,5-dihydro-1H-pyrrol-3-yl)-1H-pyrrolo[2,3-b]pyridin-6-yl)cyclopropanecarboxamide]
O=C(Nc1cc(C2=CCC(NC3CCN(C(=O)c4ccc([N+](=O)[O-])cc4)CC3)CC2)c2cc[nH]c2n1)C1CC1 (centres unmarked) [Example 494, N-(4-(4-((1-(4-nitrobenzoyl)piperidin-4-yl)amino)cyclohex-1-en-1-yl)-1H-pyrrolo[2,3-b]pyridin-6-yl)cyclopropanecarboxamide]

IC50, 0.02 to 0.2 µM:
CCCS(=O)(=O)NC1CC=C(c2cc(NC(=O)C3CC3)nc3[nH]ccc23)CC1 (centres unmarked) [Example 152, N-(4-(4-(propylsulfonamido)cyclohex-1-en-1-yl)-1H-pyrrolo[2,3-b]pyridin-6-yl)cyclopropanecarboxamide]
CC1CN(C(=O)c2ccc(F)c(F)c2)CC=C1c1cc(NC(=O)C2CC2)nc2[nH]ccc12 (centres unmarked) [Example 311, N-(4-(1-(3,4-difluorobenzoyl)-3-methyl-1,2,3,6-tetrahydropyridin-4-yl)-1H-pyrrolo[2,3-b]pyridin-6-yl)cyclopropanecarboxamide]
O=C(Nc1cc(-c2ccc(NS(=O)(=O)c3ccc(-n4cnnn4)cc3)cc2)c2cc[nH]c2n1)C1CC1 [Example 39, N-(4-(4-((4-(1H-tetrazol-1-yl)phenyl)sulfonamido)phenyl)-1H-pyrrolo[2,3-b]pyridin-6-yl)cyclopropanecarboxamide]
O=C(Nc1cc(-c2ccc(CCN3CCS(=O)(=O)CC3)cc2)c2cc[nH]c2n1)C1CC1 [Example 591, N-(4-(4-(2-(1,1-dioxidothiomorpholino)ethyl)phenyl)-1H-pyrrolo[2,3-b]pyridin-6-yl)cyclopropanecarboxamide]
O=C(Nc1nc(-c2ccc(NS(=O)(=O)CCCC(F)(F)F)cc2)c2cc[nH]c2n1)C1CC1 [Example 184, N-(4-(4-((4,4,4-trifluorobutyl)sulfonamido)phenyl)-7H-pyrrolo[2,3-d]pyrimidin-2-yl)cyclopropanecarboxamide]
CCS(=O)(=O)Nc1ccc(-c2nc(NC(=O)C3CC3)nc3[nH]ccc23)cc1 [Example 182, N-(4-(4-(ethylsulfonamido)phenyl)-7H-pyrrolo[2,3-d]pyrimidin-2-yl)cyclopropanecarboxamide]
O=C(Nc1cc(-c2ccc(NC3CCN(C(=O)Nc4ccccc4)CC3)c(F)c2)c2cc[nH]c2n1)C1CC1 [Example 498, 4-((4-(6-(cyclopropanecarboxamido)-1H-pyrrolo[2,3-b]pyridin-4-yl)-2-fluorophenyl)amino)-N-phenylpiperidine-1-carboxamide]
CNC(=O)Cc1ccc(-c2cc(NC(=O)C3CC3)nc3[nH]ccc23)cc1 [Example 539, N-(4-(4-(2-(methylamino)-2-oxoethyl)phenyl)-1H-pyrrolo[2,3-b]pyridin-6-yl)cyclopropanecarboxamide]
CC1CN(C(=O)CC#N)CC=C1c1cc(NC(=O)C2CC2)nc2[nH]ccc12 (stereo in doubt) [Example 305, (R)—N-(4-(1-(2-cyanoacetyl)-3-methyl-1,2,3,6-tetrahydropyridin-4-yl)-1H-pyrrolo[2,3-b]pyridin-6-yl)cyclopropanecarboxamide]
COc1ccc(C(=O)N2CC=C(c3cc(NC(=O)C4CC4)nc4[nH]ccc34)C(C)C2)cc1F (centres unmarked) [Example 312, N-(4-(1-(3-fluoro-4-methoxybenzoyl)-3-methyl-1,2,3,6-tetrahydropyridin-4-yl)-1H-pyrrolo[2,3-b]pyridin-6-yl)cyclopropanecarboxamide]
CC1CN(C(=O)c2ccc(Cl)c(Cl)c2)CC=C1c1cc(NC(=O)C2CC2)nc2[nH]ccc12 (centres unmarked) [Example 353, N-(4-(1-(3,4-dichlorobenzoyl)-3-methyl-1,2,3,6-tetrahydropyridin-4-yl)-1H-pyrrolo[2,3-b]pyridin-6-yl)cyclopropanecarboxamide]
Cc1ncsc1C(=O)N1CC=C(c2cc(NC(=O)C3CC3)nc3[nH]ccc23)C(C)C1 (centres unmarked) [Example 308, N-(4-(3-methyl-1-(4-methylthiazole-5-carbonyl)-1,2,3,6-tetrahydropyridin-4-yl)-1H-pyrrolo[2,3-b]pyridin-6-yl)cyclopropanecarboxamide]
O=C(Nc1cc(-c2ccc(CC(=O)N3CCC(F)(F)CC3)cc2)c2cc[nH]c2n1)C1CC1 [Example 561, N-(4-(4-(2-(4,4-difluoropiperidin-1-yl)-2-oxoethyl)phenyl)-1H-pyrrolo[2,3-b]pyridin-6-yl)cyclopropanecarboxamide]
O=C(Nc1cc(-c2ccc(NS(=O)(=O)C3CCC3)cc2C(F)(F)F)c2cc[nH]c2n1)C1CC1 [Example 120, N-(4-(4-(cyclobutanesulfonamido)-2-(trifluoromethyl)phenyl)-1H-pyrrolo[2,3-b]pyridin-6-yl)cyclopropanecarboxamide]
CCS(=O)(=O)Nc1ccc(-c2cc(NC(C)=O)nc3[nH]ccc23)cc1F [Example 710, N-(4-(4-(ethylsulfonamido)-3-fluorophenyl)-1H-pyrrolo[2,3-b]pyridin-6-yl)acetamide]
CC(C)S(=O)(=O)Oc1ccc(-c2cc(NC(=O)C3CC3)nc3[nH]ccc23)cc1 [Example 633, 4-(6-(cyclopropanecarboxamido)-1H-pyrrolo[2,3-b]pyridin-4-yl)phenyl propane-2-sulfonate]
N#CCC1(N2CC=C(c3cc(NC(=O)C4CC4)nc4[nH]ccc34)CC2)CN(C(=O)NCC(F)(F)F)C1 [Example 624, 3-(cyanomethyl)-3-(4-(6-(cyclopropanecarboxamido)-1H-pyrrolo[2,3-b]pyridin-4-yl)-3,6-dihydropyridin-1 (2H)-yl)-N-(2,2,2-trifluoroethyl)azetidine-1-carboxamide]
